Several values for one entry are separate records, joined by “and”; a condition that tells them apart may be missing. Identical values can stand only once. Like-named read-outs stand apart in the source and are kept apart here.
Assays:
HIV [1] = test: Anti-HIV activity in MT-2; type: cell-based
Description: (§1) Obviously, there is a structure activity relationship with respect to the efficacy of the compounds of the present invention. Factors that affect the relationship may include steric effects, electronic effects, (electron withdrawing or electron donating ability), resonance effects, hydrophobic,hydrophilic, hydrogen bonding parameters, etc. […] Based on the data, it has been determined that there is a direct correlation between the log (EC50)^-1 and the electronic effect of a substituent (a) or more precisely the sum of the sigma (σ) values. (The greater the electron withdrawing ability of a substituent, the higher the value of σ, while a better electron donating group has a lower value of σ.) There appears to be a direct correlation between log (EC50)^-1 and the Σσ; as the Σσ increases, so does the log (EC50)^-1. The addition of substituents to the diphenyl sulfone will affect the factors discussed hereinabove, thus both the log (EC50)^-1 and the Σσ will be affected. Thus for the diphenyl sulfone derivative [drawing 25] the relation is […]

HIV-1 = test: XTT assay of protection from HIV-1 cytopathic effect, infected, CEM-IW; type: cell-based, Human Immunodeficiency Virus
Experimental: (§2) Another assay for testing the efficacy of the compounds is the procedure* used in the National Cancer Institute's test for agents active against Human Immunodeficiency Virus (HIV). It is designed to detect agents acting at any stage of the virus reproductive cycle. The assay basically involves the killing of T4 lymphocytes by HIV. Small amounts of HIV are added to cells, and a complete cycle of virus reproduction is necessary to obtain the required cell killing. Agents that interact with virions, cells, or virus gene-products to interfere with viral activities will protect cells from cytolysis. The system is automated in several features to accommodate large numbers of candidate agents and is generally designed to detect anti-HIV activity. However, compounds that degenerate, or are rapidly metabolized in the culture conditions may not show activity in this screen. All tests are compared with at least one positive (e.g., AZT-treated) control done at the same time under identical conditions.
(§3) * Weislow. O. W., Kiser, R., Fine, D., Bader, J., Shoemaker, R. H., Boyd, M. R.: New soluble-formazan assay for HIV-1 cytopathic effects: application to high-flux screening of synthetic and natural products for AIDS-antiviral activity. J. Natl. Cancer Inst. 81:577-586, 1989.
(§4) 1. The Candidate agent is dissolved in dimethyl sulfoxide (unless otherwise instructed) then diluted 1:100 in cell culture medium before preparing serial half-log10 dilutions. T4 lymphocytes (CEM cell line) are added and after a brief interval HIV-1 added, resulting in a 1:200 final dilution of the compound. Uninfected cells with the compound serve as a toxicity control, and infected and uninfected cells without compound serve as basic controls.
(§5) 2. Cultures are incubated at 37° in a 5% carbon dioxide atmosphere for 6 days.
(§6) 3. The tetrazolium salt, XTT, is added to all wells, and cultures are incubated to allow formazan color development by viable cells.
(§7) 4. Individual wells are analyzed spectrophotometrically to quantitate formazan production, and in addition are viewed microscopically for detection of viable cells and confirmation of protective activity.
(§8) 5. Drug-treated virus-infected cells are compared with drug-treated noninfected cells and with other appropriate controls (untreated infected and untreated noninfected: cells, drug-containing wells without cells, etc.) on the same plate.
(§9) 6. Data are reviewed in comparison with other tests done at the same time and a determination about activity is made.

HIV [2] = test: Anti-HIV assays (summary statements, structure-activity trends); type: cell-based
Description: as §1

[3] = XTT toxicity control, uninfected, CEM-IW; type: cell-based; settings: human, cem-iw cells, read-out: Uninfected response
Experimental: as §2, §3, §4, §5, §6, §7, §8, §9

CEM-IW = test: XTT toxicity control, uninfected, CEM-IW; type: cell-based
Experimental: as §2, §3, §4, §5, §6, §7, §8, §9

[4] = Human immunodeficiency virus 1, MT-2, summary table, read-out: MT-2 EC50
[5] = Human immunodeficiency virus 1, CEM-IW, summary table, read-out: CEM-IW EC50
[6] = Human immunodeficiency virus 1, read-out: MT-2 EC50, M

O=[N+]([O-])c1ccccc1S(=O)(=O)c1ccc(Cl)cc1 [Compound 4, 1-(4-chlorophenylsulfonyl)-2-nitrobenzene]
EC50 (HIV [1]; [4]): 38.2 µM
EC50 (HIV-1; [5]): 42.9 µM

O=S(=O)(c1ccccc1)c1ccccc1 [Compound 3, diphenyl sulfone]
EC50 (HIV [1]; [6]): 77.5 µM

O=S(=O)(c1ccccc1)c1ccccn1 [Compound 7, phenyl 2-pyridyl sulfone]
EC50 (HIV [1]; [4]): 75.7 µM
EC50 (HIV-1; [5]): 206 µM
anti-HIV activity (in words) (HIV [2]): shows anti-HIV activity

[O-][S+](c1ccccc1)c1ccccc1 [H H H H SO]
EC50 (HIV [1]; [6]): 358 µM

O=[N+]([O-])c1ccccc1Sc1ccccc1[N+](=O)[O-] [Compound 5]
EC50 (HIV [1]; [6]): 5.77 µM
EC50 (HIV-1; [5]): 7.87 µM

O=[N+]([O-])c1ccccc1S(=O)(=O)c1ccccc1[N+](=O)[O-] [Compound 6, 2,2'-dinitrodiphenyl sulfone]
viability at 14.5 µM ([3]; 1.45 × 10^-5 Molar): 92.5%
viability at 1.45 µM ([3]; 1.45 × 10^-6 Molar): 87.1%
viability at 4.59 µM ([3]; 4.59 × 10^-6 Molar): 90%
Uninfected response (CEM-IW; 1.45 × 10^-4 Molar, 145 µM): 109.82% of Control and 97.75% of Control and 89.72% of Control and 104.62% of Control
Uninfected response (CEM-IW; 1.45 × 10^-5 Molar, 14.5 µM): 97.21% of Control and 84.55% of Control and 104.22% of Control
Uninfected response (CEM-IW; 1.45 × 10^-6 Molar, 1.45 µM): 93.92% of Control and 100.12% of Control and 105.53% of Control
Uninfected response (CEM-IW; 1.45 × 10^-7 Molar, 0.145 µM): 80.72% of Control and 98.46% of Control and 109.08% of Control and 105.53% of Control
Uninfected response (CEM-IW; 4.58 × 10^-5 Molar, 45.8 µM): 100.68% of Control and 106.72% of Control and 80.53% of Control and 105.99% of Control
Uninfected response (CEM-IW; 4.59 × 10^-6 Molar, 4.59 µM): 96.62% of Control and 82.26% of Control and 98.81% of Control
Uninfected response (CEM-IW; 4.60 × 10^-7 Molar, 0.46 µM): 74.84% of Control and 97.86% of Control and 88.80% of Control and 107.87% of Control
Uninfected response (CEM-IW; 4.60 × 10^-8 Molar, 0.046 µM): 88.77% of Control and 104.88% of Control and 105.92% of Control and 111.46% of Control
IC50 (CEM-IW; uninfected (toxicity)): > 145 µM
EC50 (HIV [1]; [6]): 0.747 µM
Conclusion (HIV-1; CEM-IW): ACTIVE
TI50 (IC/EC) (HIV-1; CEM-IW): > 2.05 × 10^+2 and > 1.75 × 10^+2 and > 1.27 × 10^+2 and > 1.62 × 10^+2
Infected response (HIV-1; CEM-IW, 1.45 × 10^-4 Molar, 145 µM): 94.22% of Control and 83.35% of Control and 80.76% of Control
Infected response (HIV-1; CEM-IW, 1.45 × 10^-5 Molar, 14.5 µM): 100.31% of Control and 95.03% of Control and 82.49% of Control and 79.91% of Control
Infected response (HIV-1; CEM-IW, 1.45 × 10^-6 Molar, 1.45 µM): 86.23% of Control and 82.50% of Control and 62.75% of Control and 68.40% of Control
Infected response (HIV-1; CEM-IW, 4.58 × 10^-5 Molar, 45.8 µM): 95.59% of Control and 83.75% of Control and 82.81% of Control
Infected response (HIV-1; CEM-IW, 4.59 × 10^-6 Molar, 4.59 µM): 92.81% of Control and 84.87% of Control and 80.73% of Control
Infected response (HIV-1; CEM-IW, 4.60 × 10^-7 Molar, 0.46 µM): 29.70% of Control and 24.44% of Control and 37.65% of Control
EC50 (HIV-1; CEM-IW, infected, read-out: EC50): 0.829 µM and 1.14 µM and 0.892 µM
viability at 145 µM (HIV-1; Human immunodeficiency virus 1, CEM-IW, 1.45 × 10^-4 Molar, read-out: Infected response): 97.4%
viability at 45.8 µM (HIV-1; Human immunodeficiency virus 1, CEM-IW, 4.58 × 10^-5 Molar, read-out: Infected response): 99%
viability at 4.59 µM (HIV-1; Human immunodeficiency virus 1, CEM-IW, 4.59 × 10^-6 Molar, read-out: Infected response): 94%
viability at 0.46 µM (HIV-1; Human immunodeficiency virus 1, CEM-IW, 4.60 × 10^-7 Molar, read-out: Infected response): 42%
EC50 (HIV-1; Human immunodeficiency virus 1, CEM-IW, infected, read-out: EC50): 0.706 µM
EC50 (HIV-1; Human immunodeficiency virus 1, read-out: CEM-IW EC50, M, CEM-IW, summary table): 5.44 µM
anti-HIV activity (in words) (HIV [2]): increased potency

From patent US5679695A, “Aryl and heteroaryl compounds having anti-retrovirus activity” (The University of Connecticut, priority 1995, dated 1997)
